Experimental data: patent US10259810B2, “N-sulfonylated pyrazolo[3,4-b]pyridin-6-carboxamides and method of use” (AbbVie S.à.r.l., priority 2015, dated 2019)
Like-named read-outs stand apart in the source and are kept apart here.

Key:
Type in all cases: cell-based
[1] = target: T1, CFTR ΔF508 (Homo sapiens, UniProt P13569, DEL508-508); test: Chronic TECC assay, primary bronchial epithelial cells of CF patients homozygous for CFTR ΔF508 (corrector, co-corrector and potentiator); conditions: for % Activity at 1 μM (Ieq*) / % Activity at 1 μM (AUC**): test compound at 1 μM
T1 construct: bronchial epithelial cells isolated from CF patients homozygous for the CFTR ΔF508 mutation; McGill University; Asterand; University of North Carolina hAEC-CF; host or cells: primary human bronchial epithelial cells from CF patients homozygous for ΔF508, differentiated at air-liquid interface
Protocol: Primary Bronchial Epithelial Cells Protocol
The TECC (Tranepithelial Clamp Circuit, EP-design) assay measures the functionality of the cystic fibrosis Transmembrane Conductance regulator (CFTR) by measuring the short circuit current (Isc) generated over the basolateral and apical membrane of lung epithelial cells. In TECC the transepithelial potential PD and transepithelial resistance (Rt) are measured in an open circuit and transformed to Ieq using Ohm's law. 24 Wells can be measured simultaneously allowing a higher throughput compared to Ussing chambers.
For this purpose, bronchial epithelial cells isolated from CF patients homozygous for the CFTR ΔF508 mutation (hAEC-CF, Epithelix, Geneva, Switzerland; McGill University, Montreal, Qc; Asterand, Detroit, Mich.; University of North Carolina, Chapel Hill, N.C.) are plated on type IV collagen-coated Transwell® supports (Costar).
For electrophysiological recording of the “chronic” experiments, the human airway epithelia are mounted in the TECC heating plate for electrophysiological measurement and kept at 37° C. The epithelia are bathed in a NaCl-Ringer solution (120 mM NaCl, 25 mM NaHCO3, 1.2 mM CaCl2, 1.2 mM MgCl2, 0.8 mM KH2PO4, 0.8 mM K2HPO4, pH 7.4, 5 mM glucose) on both the basolateral and apical sides. Test compounds (corrector, co-corrector, 4-[(2R,4R)-4-({[1-(2,2-difluoro-1,3-benzodioxol-5-yl)cyclopropyl]carbonyl}amino)-7-(difluoromethoxy)-3,4-dihydro-2H-chromen-2-yl]benzoic acid, and potentiator, N-(3-carbamoyl-5,5,7,7-tetramethyl-4,7-dihydro-5H-thieno[2,3-c]pyran-2-yl)-1H-pyrazole-5-carboxamide), are re-added to the recording solution prior to measurement. […] Apical amiloride is used to inhibit the endogenous ENaC currents while forskolin is applied on both apical and basolateral side to stimulate CFTR. Measurements are done during a 20 minute timeframe with recordings every 2 minutes. The increase in Ieq is used as a measure for the increased CFTR activity, EC50 values can be generated by measuring impact of different concentrations of compound on Ieq on primary cells, for this purpose each transwell is treated with a different compound concentration. […] Raw data were normalized to percentage activity values using the equation: 100×(Sample−Negative control)/(Positive control−Negative Control).

[2] = target: T2, ΔF508-CFTR (Homo sapiens, UniProt P13569, DEL508-508); test: CFTR cell surface levels using HRP-tagged ΔF508-CFTR expressing CFBE cells, intrinsic corrector capacity; set-up: % Activation: concentration or dose not given beside the values; conditions: HRP-tagged ΔF508-CFTR expressing CFBE41o- cells, compound alone (intrinsic corrector capacity), 20 hours at 33° C.; for EC50: read-out: EC50
T2 construct: host or cells: CFBE41o-, doxycycline-inducible
Procedure, shortened: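 Surface ΔF508-CFTR was measured as HRP chemiluminescence from an extracellular-loop-4 tag, expressed as percent activity between DMSO and a […] corrector control.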

[3] = target: T2, ΔF508-CFTR; test: CFTR cell surface levels using HRP-tagged ΔF508-CFTR expressing CFBE cells, in the presence of a co-corrector; conditions: HRP-tagged ΔF508-CFTR CFBE cells, in the presence of 3 μM co-corrector; for EC50: read-out: EC50
Procedure, shortened: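 Chemiluminescent read-out of surface HRP (15 min, dark) after PBS washes. Activity is normalized as 100×(sample−DMSO)/(3 μM co-corrector alone−DMSO).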

[4] = chronic TECC, Ieq = calculations based on the maximum current, read-out: EC50 (nM) (Ieq*)
[5] = chronic TECC, Ieq = calculations based on the maximum current
[6] = chronic TECC, AUC = full area under the curve upon forskolin stimulation, read-out: EC50 (nM) (AUC**)
[7] = chronic TECC, AUC = full area under the curve upon forskolin stimulation

T2 sequence (P13569 with tags, fused parts or gaps DEL508-508): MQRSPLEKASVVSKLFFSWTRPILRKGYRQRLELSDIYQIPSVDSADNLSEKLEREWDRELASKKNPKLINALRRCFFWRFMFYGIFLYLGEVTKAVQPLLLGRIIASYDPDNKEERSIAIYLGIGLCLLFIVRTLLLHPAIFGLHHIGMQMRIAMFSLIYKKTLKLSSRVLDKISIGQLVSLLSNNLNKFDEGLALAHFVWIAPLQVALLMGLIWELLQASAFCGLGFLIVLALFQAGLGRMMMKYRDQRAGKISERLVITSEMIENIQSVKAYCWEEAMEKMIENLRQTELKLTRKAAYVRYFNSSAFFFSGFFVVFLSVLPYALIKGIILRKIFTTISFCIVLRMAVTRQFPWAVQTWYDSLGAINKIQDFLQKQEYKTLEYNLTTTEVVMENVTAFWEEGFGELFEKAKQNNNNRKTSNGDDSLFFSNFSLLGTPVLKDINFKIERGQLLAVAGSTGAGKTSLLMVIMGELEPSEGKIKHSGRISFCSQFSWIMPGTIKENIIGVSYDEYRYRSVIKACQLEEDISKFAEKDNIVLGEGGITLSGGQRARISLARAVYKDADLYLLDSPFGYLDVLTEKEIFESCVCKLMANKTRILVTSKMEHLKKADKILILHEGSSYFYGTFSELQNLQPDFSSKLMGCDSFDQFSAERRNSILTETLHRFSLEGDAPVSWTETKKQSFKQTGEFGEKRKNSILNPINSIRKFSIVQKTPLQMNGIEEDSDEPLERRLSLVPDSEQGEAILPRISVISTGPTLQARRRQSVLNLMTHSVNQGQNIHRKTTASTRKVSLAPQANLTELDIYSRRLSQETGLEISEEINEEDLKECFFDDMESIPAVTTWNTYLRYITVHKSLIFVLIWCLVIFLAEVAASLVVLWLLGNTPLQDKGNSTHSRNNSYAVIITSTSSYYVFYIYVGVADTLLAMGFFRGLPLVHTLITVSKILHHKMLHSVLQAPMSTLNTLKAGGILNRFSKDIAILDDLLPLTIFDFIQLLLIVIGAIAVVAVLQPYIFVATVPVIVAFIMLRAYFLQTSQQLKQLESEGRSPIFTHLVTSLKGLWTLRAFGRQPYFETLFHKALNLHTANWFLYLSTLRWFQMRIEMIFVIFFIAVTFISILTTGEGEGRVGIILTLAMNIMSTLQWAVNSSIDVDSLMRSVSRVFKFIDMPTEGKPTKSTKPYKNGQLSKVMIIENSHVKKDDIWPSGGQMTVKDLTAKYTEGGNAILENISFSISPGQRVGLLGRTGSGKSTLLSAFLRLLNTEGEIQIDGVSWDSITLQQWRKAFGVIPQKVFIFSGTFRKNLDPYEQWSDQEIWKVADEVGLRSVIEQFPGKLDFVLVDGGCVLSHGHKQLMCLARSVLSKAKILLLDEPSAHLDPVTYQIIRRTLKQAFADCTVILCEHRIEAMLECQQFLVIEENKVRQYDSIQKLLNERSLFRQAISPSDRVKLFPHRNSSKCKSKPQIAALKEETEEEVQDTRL
T1 sequence (P13569 with tags, fused parts or gaps DEL508-508): as above

Q: How did the EC50 [1, 4] turn out when `COCCN(C)c1ccc(-c2cc(C(=O)NS(C)(=O)=O)nc3c2c(C2CCC2)nn3-c2ccccc2)cn1` [Compound 63, 3-cyclobutyl-N-(methanesulfonyl)-4-{6-[(2-methoxyethyl)(methyl)amino]pyridin-3-yl}-1-phenyl-1H-pyrazolo[3,4-b]pyridine-6-carboxamide] was run?
A: Its EC50 is 40 nM.

Q: What about the “% Activity at 1 μM (Ieq*)” value [1, 5] of the same molecule?
A: The value was 325%.

Q: For `COCCN(C)c1ccc(-c2cc(C(=O)NS(C)(=O)=O)nc3c2c(C2CCC2)nn3-c2ccccc2)cc1` [Compound 75, 3-cyclobutyl-N-(methanesulfonyl)-4-{4-[(2-methoxyethyl)(methyl)amino]phenyl}-1-phenyl-1H-pyrazolo[3,4-b]pyridine-6-carboxamide], which EC50 [1, 4] is on record?
A: Its EC50 is 30 nM.

Q: What about the “% Activity at 1 μM (Ieq*)” value [1, 5] of the same molecule?
A: The value was 316%.

Q: For `COC1CCN(c2cc(C(=O)NS(C)(=O)=O)nc3c2c(C2CCC2)nn3-c2ccccc2)CC1` [Compound 142, 3-cyclobutyl-N-(methanesulfonyl)-4-(4-methoxypiperidin-1-yl)-1-phenyl-1H-pyrazolo[3,4-b]pyridine-6-carboxamide], which EC50 [1, 6] is on record?
A: The EC50 was < 300 nM.

Q: And the “% Activity at 1 μM (AUC**)” value [1, 7]?
A: Its value is 250%.

Q: With `CS(=O)(=O)NC(=O)c1cc(N2CCC(N3CCOCC3)CC2)c2c(C3CCC3)nn(-c3ccccc3)c2n1` [Compound 328, 3-cyclobutyl-N-(methanesulfonyl)-4-[4-(morpholin-4-yl)piperidin-1-yl]-1-phenyl-1H-pyrazolo[3,4-b]pyridine-6-carboxamide] as the molecule, how does the EC50 [1] read?
A: Its EC50 is 96 nM.

Q: Which EC50 [1, 6] does the source give for `COC1CCN(C2CCN(c3cc(C(=O)NS(=O)(=O)N(C)C)nc4c3c(C3CCC3)nn4-c3ccc(F)cc3)CC2)CC1` [Compound 381, 3-cyclobutyl-N-(dimethylsulfamoyl)-1-(4-fluorophenyl)-4-(4-methoxy[1,4'-bipiperidin]-1'-yl)-1H-pyrazolo[3,4-b]pyridine-6-carboxamide] here?
A: The EC50 was 4100 nM.

Q: What about the “% Activity at 3 μM (AUC**)” value ([1]; chronic TECC, test compound at 3 μM, AUC = full area under the curve upon forskolin stimulation) of the same molecule?
A: Its value is 441%.

Q: How did the EC50 [1, 6] turn out when `CN(C)S(=O)(=O)NC(=O)c1cc(N2CCC(N3CCOCC3)CC2)c2c(C3CCC3)nn(-c3ccc(F)cc3)c2n1` [Compound 408, 3-cyclobutyl-N-(dimethylsulfamoyl)-1-(4-fluorophenyl)-4-[4-(morpholin-4-yl)piperidin-1-yl]-1H-pyrazolo[3,4-b]pyridine-6-carboxamide] was run?
A: Its EC50 is 21 nM.

Q: And the “% Activity at 1 μM (AUC**)” value [1, 7]?
A: The value was 430%.

Q: `CN(C(=O)c1cc(N2CCC(CN3CCCC3)CC2)c2c(C3CCC3)nn(-c3ccccc3)c2n1)S(C)(=O)=O` [Compound 662, 3-cyclobutyl-N-(methanesulfonyl)-N-methyl-1-phenyl-4-{4-[(pyrrolidin-1-yl)methyl]piperidin-1-yl}-1H-pyrazolo[3,4-b]pyridine-6-carboxamide] was tested. Which “% Activation” value [2] did it give?
A: Its value is 134.35%.

Q: What about the EC50 [2] of the same molecule?
A: The EC50 was 124 nM.

Q: And the “% Activation” value [3]?
A: The value was 346.65%.

Q: And the EC50 [3]?
A: The EC50 was 104 nM.

Q: What does the source list for `O=C(c1cc(N2CCC(CN3CCCC3)CC2)c2c(C3CCC3)nn(-c3ccccc3)c2n1)N1CCCCS1(=O)=O` [Compound 663, 2-(3-cyclobutyl-1-phenyl-4-{4-[(pyrrolidin-1-yl)methyl]piperidin-1-yl}-1H-pyrazolo[3,4-b]pyridine-6-carbonyl)-1λ^6,2-thiazinane-1,1-dione]?
A: % Activation [2]: 57.9%; EC50 [2]: 234 nM; % Activation [3]: 206.5%; EC50 [3]: 103 nM

Q: How did the “% Activation” value [2] turn out when `CN1CCCN(C(=O)c2cc(N3CCC(N4CCOCC4)CC3)c3c(C4CCC4)nn(-c4ccccc4)c3n2)S1(=O)=O` [Compound 664, 2-{3-cyclobutyl-4-[4-(morpholin-4-yl)piperidin-1-yl]-1-phenyl-1H-pyrazolo[3,4-b]pyridine-6-carbonyl}-6-methyl-1λ^6,2,6-thiadiazinane-1,1-dione] was run?
A: Its value is 70.082%.

Q: And the EC50 [2]?
A: Its EC50 is 278 nM.

Q: What about the “% Activation” value [3] of the same molecule?
A: The value was 230.48%.

Q: And the EC50 [3]?
A: The EC50 was 172 nM.

Q: Which “% Activation” value [2] does the source give for `O=C(c1cc(N2CCC(N3CCOCC3)CC2)c2c(C3CCC3)nn(-c3ccccc3)c2n1)N1CCCS1(=O)=O` [Compound 665, 2-{3-cyclobutyl-4-[4-(morpholin-4-yl)piperidin-1-yl]-1-phenyl-1H-pyrazolo[3,4-b]pyridine-6-carbonyl}-1λ^6,2-thiazolidine-1,1-dione] here?
A: Its value is 101.9%.

Q: And the EC50 [2]?
A: The EC50 was 259 nM.

Q: What about the “% Activation” value [3] of the same molecule?
A: The value was 271.8%.

Q: What about the EC50 [3] of the same molecule?
A: Its EC50 is 101 nM.

Q: Which “% Activation” value [2] does the source give for `O=C(c1cc(N2CCC(N3CCOCC3)CC2)c2c(C3CCC3)nn(-c3ccccc3)c2n1)N1CCCCS1(=O)=O` [Compound 666, 2-{3-cyclobutyl-4-[4-(morpholin-4-yl)piperidin-1-yl]-1-phenyl-1H-pyrazolo[3,4-b]pyridine-6-carbonyl}-1λ^6,2-thiazinane-1,1-dione] here?
A: Its value is 99.775%.

Q: What about the EC50 [2] of the same molecule?
A: Its EC50 is 256 nM.

Q: What about the “% Activation” value [3] of the same molecule?
A: The value was 266.6%.

Q: And the EC50 [3]?
A: The EC50 was 122 nM.

Q: Which “% Activation” value [2] does the source give for `COCC1CCN(c2cc(C(=O)N3CCCS3(=O)=O)nc3c2c(C2CCC2)nn3-c2ccccc2)CC1` [Compound 667, 2-{3-cyclobutyl-4-[4-(methoxymethyl)piperidin-1-yl]-1-phenyl-1H-pyrazolo[3,4-b]pyridine-6-carbonyl}-1λ^6,2-thiazolidine-1,1-dione] here?
A: Its value is 75.435%.

Q: And the EC50 [2]?
A: The EC50 was 208 nM.

Q: What about the “% Activation” value [3] of the same molecule?
A: The value was 225.5%.

Q: What about the EC50 [3] of the same molecule?
A: Its EC50 is 85.5 nM.

Q: Which results are given for `COCC1CCN(c2cc(C(=O)N3CCCCS3(=O)=O)nc3c2c(C2CCC2)nn3-c2ccccc2)CC1` [Compound 668, 2-{3-cyclobutyl-4-[4-(methoxymethyl)piperidin-1-yl]-1-phenyl-1H-pyrazolo[3,4-b]pyridine-6-carbonyl}-1λ^6,2-thiazinane-1,1-dione]?
A: % Activation [2]: 89.495%; EC50 [2]: 384 nM; % Activation [3]: 307.4%; EC50 [3]: 257 nM

Q: What does the source list for `CNS(=O)(=O)NC(=O)c1cc(N2CCC(COC)CC2)c2c(C3CCC3)nn(-c3ccc(F)cc3)c2n1` [Compound 669, 3-cyclobutyl-1-(4-fluorophenyl)-4-[4-(methoxymethyl)piperidin-1-yl]-N-(methylsulfamoyl)-1H-pyrazolo[3,4-b]pyridine-6-carboxamide]?
A: % Activation [2]: 334.9%; EC50 [2]: 211 nM; % Activation [3]: 394%; EC50 [3]: 244 nM

Q: For `COCCS(=O)(=O)NC(=O)c1cc(N2CCC(COC)CC2)c2c(C3CCC3)nn(-c3ccc(F)cc3)c2n1` [Compound 670, 3-cyclobutyl-1-(4-fluorophenyl)-N-(2-methoxyethanesulfonyl)-4-[4-(methoxymethyl)piperidin-1-yl]-1H-pyrazolo[3,4-b]pyridine-6-carboxamide], which “% Activation” value [2] is on record?
A: The value was 399.2%.

Q: And the EC50 [2]?
A: The EC50 was 277 nM.

Q: What about the “% Activation” value [3] of the same molecule?
A: The value was 477.6%.

Q: And the EC50 [3]?
A: Its EC50 is 191 nM.

Q: Which “% Activation” value [2] does the source give for `COCC1CCN(c2cc(C(=O)NS(=O)(=O)N3CCOCC3)nc3c2c(C2CCC2)nn3-c2ccc(F)cc2)CC1` [Compound 671, 3-cyclobutyl-1-(4-fluorophenyl)-4-[4-(methoxymethyl)piperidin-1-yl]-N-(morpholine-4-sulfonyl)-1H-pyrazolo[3,4-b]pyridine-6-carboxamide] here?
A: Its value is 252.95%.

Q: And the EC50 [2]?
A: The EC50 was 274 nM.

Q: What about the “% Activation” value [3] of the same molecule?
A: The value was 346.1%.

Q: And the EC50 [3]?
A: The EC50 was 107 nM.

Q: What does the source list for `COCC1CCN(c2cc(C(=O)NS(=O)(=O)CCCO)nc3c2c(C2CCC2)nn3-c2ccc(F)cc2)CC1` [Compound 672, 3-cyclobutyl-1-(4-fluorophenyl)-N-(3-hydroxypropane-1-sulfonyl)-4-[4-(methoxymethyl)piperidin-1-yl]-1H-pyrazolo[3,4-b]pyridine-6-carboxamide]?
A: % Activation [2]: 362.9%; EC50 [2]: 331 nM; % Activation [3]: 422.4%; EC50 [3]: 127 nM
